Test results from patent US10807968B2, “Substituted 2-(het)arylimidazolylcarboxyamides as pesticides” (Bayer CropScience Aktiengesellschaft, priority 2016, dated 2020).
Where two headings read alike, the source gives them in different places.

How the values were obtained:
[1] = log P determination by HPLC on reversed-phase (C18) columns, OECD Guideline 117; assay type: physicochemical; details: for chromatographic logP: reversed-phase (C18) HPLC column
Experimental: The log P values were determined in accordance with OECD Guideline 117 (EC Directive 92/69/EEC) by HPLC (high-performance liquid chromatography) using reversed-phase (RP) columns (C18), by the following methods:
[a] The LC-MS determination in the acidic range was carried out at pH 2.7 with 0.1% aqueous formic acid and acetonitrile (contains 0.1% formic acid) as mobile phases; linear gradient from 10% acetonitrile to 95% acetonitrile.
[b] LC-MS determination in the neutral range was carried out at pH 7.8 with 0.001 molar aqueous ammonium hydrogencarbonate solution and acetonitrile as mobile phases; linear gradient from 10% acetonitrile to 95% acetonitrile.

Myzus persicae [2] = test: Myzus persicae - oral test; assay type: in vivo; details: after 5 days; for efficacy in % (aphids killed): 20 ppm; for pest or weed control at 20 ppm: Myzus persicae, 120 h, read-out: efficacy in % (aphids killed)
Experimental: Solvent: 100 parts by weight of acetone
Subsequently, the plates are sealed with parafilm, which a mixed population of green peach aphids (Myzus persicae) within a second microtitre plate is able to puncture and imbibe the solution through it.
After 5 days, the efficacy in % is determined. 100% means that all the aphids have been killed; 0% means that no aphids have been killed.

Myzus persicae [3] = test: Myzus persicae - spray test (Chinese cabbage leaf discs); assay type: in vivo; details: 500 g/ha, after 6 days; for pest or weed control at 500 g/ha: Myzus persicae, foliar, 144 h, read-out: efficacy in % (aphids killed)
Experimental: Myzus persicae—Spray Test
Solvent: 78 parts by weight of acetone • • 1.5 parts by weight of dimethylformamide
Emulsifier: alkylaryl polyglycol ether
To produce a suitable preparation of active compound, 1 part by weight of active compound is dissolved using the specified parts by weight of solvent and made up with water containing an emulsi fier concentration of 1000 ppm until the desired concentration is attained. To produce further test concentrations, the formulation is diluted with emulsifier-containing water.
Discs of Chinese cabbage leaves (Brassica pekinensis) infested by all stages of the green peach aphid (Myzus persicae) are sprayed with an active compound formulation of the desired concentration.
After 6 days, the efficacy in % is determined. 100% means that all the aphids have been killed; 0% means that no aphids have been killed.

[4] = HPLC, acidic range pH 2.7, 0.1% aqueous formic acid/acetonitrile
[5] = HPLC, neutral range pH 7.8, 0.001 molar aqueous ammonium hydrogencarbonate/acetonitrile
[6] = pH 2.7, HPLC, acidic range pH 2.7, 0.1% aqueous formic acid/acetonitrile, read-out: logp-acidic
[7] = pH 7.8, HPLC, neutral range pH 7.8, 0.001 molar aqueous ammonium hydrogencarbonate/acetonitrile, read-out: logp-neutral

| Compound | efficacy in % (aphids killed) (Myzus persicae [2]) | efficacy in % (aphids killed) (Myzus persicae [3]) | logp-acidic ([1]; pH 2.7) | logp-neutral ([1]; pH 7.8) | other results |
| --- | --- | --- | --- | --- | --- |
| COc1cc(C#N)cc(-c2ncc(C(=O)N(C)c3cccnc3)n2C)c1 [Example 100] | 100% | 90% | – | – | logp-acidic [1, 4]: 1.34; logp-neutral [1, 5]: 1.57 |
| CN(C(=O)c1cnc(-c2ccccn2)n1C)c1cccnc1 [Example 47] | – | – | – | – | chromatographic logP [1, 6]: 0.74; chromatographic logP [1, 7]: 1.16; pest or weed control at 20 ppm (Myzus persicae [2]): 100%; pest or weed control at 500 g/ha (Myzus persicae [3]): 90% |
| CCOC(=O)COc1cc(-c2ncc(C(=O)N(C)c3cccnc3)n2C)ccc1F [Example 43] | – | – | 1.44 | – | – |
| CN(C(=O)c1cnc(-c2cc(C#N)cc(C(F)(F)F)c2)n1C)c1cccnc1 [Example 61] | 100% | 100% | – | – | logp-acidic [1, 4]: 1.85; logp-neutral [1, 5]: 1.96 |
| CCOc1ncc(-c2ncc(C(=O)N(C)c3cccnc3)n2C)cc1C#N [Example 67] | 100% | 100% | 1.50 | 1.73 | – |
| COc1ncc(-c2ncc(C(=O)N(C)c3cccnc3)n2C)cc1Cl [Example 90] | 100% | 90% | 1.28 | 1.68 | – |
| CN(C(=O)c1cnc(-c2cccnc2)n1C)c1cccnc1 [Example 7] | – | – | – | – | chromatographic logP [1, 6]: 0.18; pest or weed control at 20 ppm (Myzus persicae [2]): 100%; pest or weed control at 500 g/ha (Myzus persicae [3]): 90% |
| CN(C(=O)c1cnc(-c2cccc([S+]([O-])CC(F)(F)F)c2)n1C)c1cccnc1 (stereo not drawn) [Example 5] | 100% | 90% | 1.07 | 1.43 | – |
| CN(C(=O)c1cnc(-c2cc(-c3ccccc3)no2)n1C)c1cccnc1 [Example 71] | – | – | – | – | chromatographic logP [1, 6]: 1.9; chromatographic logP [1, 7]: 2.37; pest or weed control at 20 ppm (Myzus persicae [2]): 100%; pest or weed control at 500 g/ha (Myzus persicae [3]): 100% |
| COc1cc(-c2ncc(C(=O)N(C)c3cccnc3)n2C)cnc1OC [Example 93] | 100% | 90% | 0.66 | 1.28 | – |
| COc1cc(-c2ncc(C(=O)N(C)c3cccnc3)n2C)ccn1 [Example 94] | 100% | 90% | 1 | 1.26 | – |
| CN(C(=O)c1cnc(-c2cccc(S(C)(=O)=O)c2)n1C)c1cccnc1 [Example 22] | 100% | 100% | 0.75 | 1.08 | – |
| CCOc1ncccc1-c1ncc(C(=O)N(C)c2cccnc2)n1C [Example 92] | 100% | 90% | 0.8 | 1.43 | – |
| Cc1cc(F)c(-c2ncc(C(=O)N(C)c3cccnc3)n2C)cc1SCC(F)(F)F [Example 2] | – | – | – | – | chromatographic logP [1, 6]: 2.23; chromatographic logP [1, 7]: 2.48; pest or weed control at 20 ppm (Myzus persicae [2]): 100%; pest or weed control at 500 g/ha (Myzus persicae [3]): 90% |
| CN(C(=O)c1cnc(-c2cn(C)nn2)n1C)c1cccnc1 [Example 74] | – | – | – | – | chromatographic logP [1, 6]: 0.27; chromatographic logP [1, 7]: 0.76; pest or weed control at 20 ppm (Myzus persicae [2]): 100%; pest or weed control at 500 g/ha (Myzus persicae [3]): 100% |
| CN(C(=O)c1cnc(-c2cccc(SCC3CC3)c2)n1C)c1cccnc1 [Example 18] | 100% | 90% | 1.87 | 2.36 | – |
| CN(C(=O)c1cnc(-c2ncccc2Cl)n1C)c1cccnc1 [Example 106] | 90% | 90% | 0.75 | 1.1 | – |
| CN(C(=O)c1cnc(-c2ccc(Cl)c(Cl)c2)n1C)c1cccnc1 [Example 13] | 100% | 90% | – | – | logp-acidic [1, 4]: 1.79 |
| COc1cc(-c2ncc(C(=O)N(C)c3cccnc3)n2C)cc(OC)n1 [Example 97] | 100% | 100% | 1.37 | 1.67 | – |

| Compound | efficacy in % (aphids killed) (Myzus persicae [2]) | efficacy in % (aphids killed) (Myzus persicae [3]) | logp-acidic ([1]; pH 2.7) | logp-neutral ([1]; pH 7.8) | other results |
| --- | --- | --- | --- | --- | --- |
| COc1ncccc1-c1ncc(C(=O)N(C)c2cccnc2)n1C [Example 88] | 100% | 90% | 0.53 | 1.16 | – |
| COc1ccc(OC)c(-c2ncc(C(=O)N(C)c3cccnc3)n2C)c1 [Example 85] | 100% | – | 0.9 | – | – |
| CN(C(=O)c1cnc(-c2cccc(C#N)c2)n1C)c1cccnc1 [Example 58] | 100% | 100% | – | – | logp-acidic [1, 4]: 0.91; logp-neutral [1, 5]: 1.33 |
| CN(C(=O)c1cnc(-c2cccc(C(F)(F)F)n2)n1C)c1cccnc1 [Example 86] | 100% | 90% | 1.91 | 2.04 | – |
| CN(C(=O)c1cnc(-c2cccc(Cl)c2)n1C)c1cccnc1 [Example 10] | 100% | 90% | – | – | logp-acidic [1, 4]: 1.29 |
| CN(C(=O)c1cnc(-c2ccc(Cl)c(C#N)c2)n1C)c1cccnc1 [Example 59] | 100% | 90% | – | – | logp-acidic [1, 4]: 1.42; logp-neutral [1, 5]: 1.69 |
| COc1ccc(-c2ncc(C(=O)N(C)c3cccnc3)n2C)cc1[N+](=O)[O-] [Example 96] | – | – | – | – | logp-acidic [1, 4]: 1.2; logp-neutral [1, 5]: 1.53 |
| CCOC(=O)COc1cc(-c2ncc(C(=O)N(C)c3cccnc3)n2C)cc(F)c1F [Example 42] | – | – | 1.80 | 2.02 | – |
| CN(C(=O)c1cnc(Br)n1C)c1cccnc1 [XI] | – | – | – | – | chromatographic logP [1, 6]: 0.65; chromatographic logP [1, 7]: 0.93 |
| CN(C(=O)c1cnc(-c2cccc(COC3CCOCC3)c2)n1C)c1cccnc1 [Example 20] | – | – | – | – | chromatographic logP [1, 6]: 1.11; chromatographic logP [1, 7]: 1.57; pest or weed control at 500 g/ha (Myzus persicae [3]): 90% |
| CSc1ccccc1-c1ncc(C(=O)N(C)c2cccnc2)n1C [Example 98] | 100% | – | 1.14 | 1.59 | – |
| CN(C(=O)c1cnc(-c2ccncc2)n1C)c1cccnc1 [Example 33] | – | – | – | – | pest or weed control at 20 ppm (Myzus persicae [2]): 100%; pest or weed control at 500 g/ha (Myzus persicae [3]): 100% |
| COC(=O)c1cnc(-c2cc(SCC(F)(F)F)c(C)cc2F)n1C [XVIII, methyl 2-{2-fluoro-4-methyl-5-[(2,2,2-trifluoroethyl)sulphanyl]phenyl}-1-methyl-1H-imidazole-5-carboxylate] | – | – | – | – | chromatographic logP [1, 6]: 3.09; chromatographic logP [1, 7]: 3.19 |
| Cc1cc(F)c(-c2ncc(C(=O)O)n2C)cc1SCC(F)(F)F [XIX] | – | – | – | – | chromatographic logP [1, 6]: 1.83; chromatographic logP [1, 7]: 0.95 |
| Cc1cc(F)c(B2OC(C)(C)C(C)(C)O2)cc1SCC(F)(F)F [XVI, 2-{2-fluoro-4-methyl-5-[(2,2,2-trifluoroethyl)sulphanyl]phenyl}-4,4,5,5-tetramethyl-1,3,2-dioxaborolane] | – | – | – | – | chromatographic logP [1, 6]: 4.89; chromatographic logP [1, 7]: 4.8 |
| CCN(C(=O)c1cncn1C)c1cccnc1 [VII-ethyl] | – | – | – | – | chromatographic logP [1, 7]: 0.78 |
| CCOC(=O)COc1cccc(-c2ncc(C(=O)N(C)c3cccnc3)n2C)c1 [Example 41] | – | – | 1.18 | 1.70 | – |
| C#Cc1ncc(C(=O)N(C)c2cccnc2)n1C [XIV, 2-ethynyl-N,1-dimethyl-N-(pyridin-3-yl)-1H-imidazole-5-carboxamide] | – | – | – | – | chromatographic logP [1, 6]: 0.53; chromatographic logP [1, 7]: 0.87 |
